According to patent US8912221B2, “Biaryl amide derivatives” (Hoffmann-La Roche Inc., priority 2010, dated 2014):

How the values were obtained:
Bradykinin-1 receptor [1] = target: T1, Bradykinin-1 receptor (Homo sapiens (Human), UniProt P46663); assay: Receptor Binding Assay; details: membranes from CHO-K1 cells overexpressing Bradykinin-1 receptor; 6 nM [3H]Kallidin (Des Arg10, Leu9); read-out: B1R Binding Ki
Experimental: Binding assays were done with membranes from CHO-K1 cells overexpressing Bradykinin-1 receptor.
For binding, Bradykinin-1 receptor antagonist compounds were added in various concentrations in 50 mM Tris pH 7.4, 5 mM MgCl2 together with 6 nM Kallidin (Des Arg^10, Leu^9), [3,4-Prolyl-3,4-^3H(N)] (PerkinElmer, 1.85-4.44 TBq/mmol) to 40 μg membrane protein containing approximately 1 fmol Bradykinin-1 receptor and incubated for 15 min at 27° C. To determine non-specific binding 10 μM Lys-(Des-Arg^9)-Bradykinin (Bachem) was added. Membranes were harvested through GF/B (glass fiber filter; PerkinElmer) plates, equilibrated with 0.5% polyethylenimine, air dried at 50° C. for 2 hr. Radioactivity was determined by counting in a topcounter (NXT Packard). Specific binding was defined as total binding minus nonspecific binding and typically represents about 90-95% of the total binding. Antagonist activity is expressed as Ki: inhibitor concentration required for 50% inhibition of specific binding corrected for the concentration of the radioligand.

Bradykinin-1 receptor [2] = target: T1, Bradykinin-1 receptor; assay: Calcium Mobilization Assay; type: cell-based; details: GeneBLAzer Bradykinin (B1)-NFAT-bla CHO-K1 cells; antagonist activity, FLIPR; read-out: Ca mobilization IC50
Experimental: Calcium Mobilization Assay
GeneBLAzer® Bradykinin (B1)-NFAT-bla CHO-K1 cells (from Invitrogen) stably overexpressing the human bradykinin 1 receptor were cultured in DMEM (high glucose) supplemented with 10% dialysed FBS, 1% NEAA (non essential amino acids) 1% penicillin/streptomycin, 1% G418 and 0.1 mg/ml zeocin.
For the assay cells were grown overnight in 384-well black clear flat bottom polystyrene plates (Costar) at 37° C. at 5% CO2. After washing with DMEM, 20 mM Hepes, 2.5 mM probenecid, 0.1% BSA (DMEM assay buffer) cells were loaded with 4 μM Fluo-4 in the same DMEM assay buffer for 2 hours at 30° C. Excess dye was removed and cells were washed with DMEM assay buffer. 384-well compound plates were prepared with DMEM assay buffer/0.5% DMSO with or without various concentrations of test compounds. Usually compounds were tested for agonist and antagonist activity.
Test compounds were added to the assay plate and agonist activity was monitored as fluorescence for 80 seconds with a FLIPR (488 nm excitation; 510-570 nm emission; Molecular Devices). […] Increases in intracellular calcium are reported as maximum fluorescence after agonist exposure minus basal fluorescence before exposure. Antagonist activity is indicated as inhibitor concentration required for 50% inhibition of specific calcium increases.

T1 sequence (P46663 whole entry): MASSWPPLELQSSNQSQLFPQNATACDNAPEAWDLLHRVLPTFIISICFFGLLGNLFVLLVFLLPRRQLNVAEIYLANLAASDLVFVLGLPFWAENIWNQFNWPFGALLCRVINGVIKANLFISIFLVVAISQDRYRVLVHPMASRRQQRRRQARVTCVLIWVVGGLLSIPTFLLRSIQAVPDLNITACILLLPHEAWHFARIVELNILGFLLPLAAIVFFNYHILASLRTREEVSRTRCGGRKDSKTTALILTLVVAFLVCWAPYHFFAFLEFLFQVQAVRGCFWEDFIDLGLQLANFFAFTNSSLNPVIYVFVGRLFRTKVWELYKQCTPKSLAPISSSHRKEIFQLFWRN

Row | Compound | Ki (Bradykinin-1 receptor [1]) [nM] | IC50 (Bradykinin-1 receptor [2]) [nM]
1 | Cc1nc(-c2c(F)cc(Cl)cc2-c2cnc([C@@H](C)NC(=O)C3(NC(=O)c4cc(F)cc(C(F)(F)F)c4)COC3)c(F)c2)no1 [Example 1, 3-(3-Fluoro-5-trifluoromethyl-benzoylamino)-oxetane-3-carboxylic acid ((R)-1-{5-[5-chloro-3-fluoro-2-(5-methyl-[1,2,4]oxadiazol-3-yl)-phenyl]-3-fluoro-pyridin-2-yl}-ethyl)-amide] | 2.6 | 0.3
2 | Cc1nc(-c2c(F)cc(Cl)cc2-c2cnc([C@@H](C)NC(=O)C3(NC(=O)C(F)(F)F)COC3)c(F)c2)no1 [Example 2, 3-(2,2,2-Trifluoro-acetylamino)-oxetane-3-carboxylic acid ((R)-1-{5-[5-chloro-3-fluoro-2-(5-methyl-[1,2,4]oxadiazol-3-yl)-phenyl]-3-fluoro-pyridin-2-yl}-ethyl)-amide] | 11.9 | 1.2
3 | Cc1nc(-c2c(F)cc(Cl)cc2-c2cnc([C@@H](C)NC(=O)C3(NC(=O)c4ccno4)COC3)c(F)c2)no1 [Example 3, Isoxazole-5-carboxylic acid [3-((R)-1-{5-[5-chloro-3-fluoro-2-(5-methyl-[1,2,4]oxadiazol-3-yl)-phenyl]-3-fluoro-pyridin-2-yl}-ethylcarbamoyl)-oxetan-3-yl]-amide] | 2.4 | 0.4
4 | Cc1cc(C(=O)NC2(C(=O)N[C@H](C)c3ncc(-c4cc(Cl)cc(F)c4-c4noc(C)n4)cc3F)COC2)on1 [Example 4, 3-Methyl-isoxazole-5-carboxylic acid [3-((R)-1-{5-[5-chloro-3-fluoro-2-(5-methyl-[1,2,4]oxadiazol-3-yl)-phenyl]-3-fluoro-pyridin-2-yl}-ethylcarbamoyl)-oxetan-3-yl]-amide] | 2.5 | 0.2
5 | Cc1nc(-c2c(F)cc(Cl)cc2-c2cnc([C@@H](C)NC(=O)C3(NC(=O)c4cncnc4)COC3)c(F)c2)no1 [Example 5, Pyrimidine-5-carboxylic acid [3-((R)-1-{5-[5-chloro-3-fluoro-2-(5-methyl-[1,2,4]oxadiazol-3-yl)-phenyl]-3-fluoro-pyridin-2-yl}-ethylcarbamoyl)-oxetan-3-yl]-amide] | 1.1 | 0.1
6 | COC(=O)c1c(Cl)cccc1-c1ccc([C@@H](C)NC(=O)C2(NC(=O)C(F)(F)F)COC2)c(F)c1 [Example 6, 3-Chloro-3′-fluoro-4′-((R)-1-{[3-(2,2,2-trifluoro-acetylamino)-oxetane-3-carbonyl]-amino}-ethyl)-biphenyl-2-carboxylic acid methyl ester] | 6.5 | 2.2
7 | COC(=O)c1c(Cl)cccc1-c1ccc([C@@H](C)NC(=O)C2(NC(=O)c3cncnc3)COC2)c(F)c1 [Example 7, 3-Chloro-3′-fluoro-4′-[(R)-1-({3-[(pyrimidine-5-carbonyl)-amino]-oxetane-3-carbonyl}-amino)-ethyl]-biphenyl-2-carboxylic acid methyl ester] | 1.6 | 0.1
8 | COC(=O)c1c(Cl)cccc1-c1ccc([C@@H](C)NC(=O)C2(NC(=O)CC(F)(F)F)COC2)c(F)c1 [Example 8, 3-Chloro-3′-fluoro-4′-((R)-1-{[3-(3,3,3-trifluoro-propionylamino)-oxetane-3-carbonyl]-amino}-ethyl)-biphenyl-2-carboxylic acid methyl ester] | 5.3 | 0.4
9 | Cc1cc(C(=O)NC2(C(=O)N[C@H](C)c3ncc(-c4cc(Cl)cc(Cl)c4OCC(F)F)cc3F)COC2)on1 [Example 9, 3-Methyl-isoxazole-5-carboxylic acid [3-((R)-1-{5-[3,5-dichloro-2-(2,2-difluoro-ethoxy)-phenyl]-3-fluoro-pyridin-2-yl}-ethylcarbamoyl)-oxetan-3-yl]-amide] | 5.1 | 1.1
